The record followed here is patent US20140287454A1, “SUSCEPTIBILITY TO SELECTIVE CDK9 INHIBITORS” (MAX-PLANCK-GESELLSCHAFT ZUR FÖRDERUNG DER WISSENSCHAFTEN …, priority 2011, published 2014).

For one assay, the target named is T1, CDK9/CyclinT1 (Homo sapiens, UniProt P50750).
T1 construct: purchased Invitrogen
Kind of assay: Lance Ultra KinaSelect Assay, CDK9. It is filed as biochemical. To be noted: FIG. 2.
Text: (§1) The principle behind this enzymatic assay is based upon the phosphorylation of the Ulight-Peptide Substrat. It is detected by using a specific EU-labeled anti-phospho peptide antibody. […] Binding of an inhibitor to the kinase prevents phosphorylation of the Ulight-MBP Substrat, resulting in a loss of FRET.
as §1
This compound predilution was then serial diluted 1:3 over 8 steps in DMSO and briefly spun down. Each compound solution was now diluted 1:20 in Enzymatic Buffer (HEPES: 50 mM, pH: 7.5; MgCl2: 10 mM; EGTA: 1 mM; DTT: 2 mM; Tween-20: 0.01%), mixed thoroughly and spun down.

Assay [1] has as its system BrdNut mutated cell lines (HCC2429, TY-82, 690100, 143100). The assay can be described thus: Proliferation assay on Brd-4-Nut mutated versus wild type cell lines (FIG. 4). To be noted: mutated: HCC2429, TY-82, 690100, 143100, wild type: Hela, HCC366, H460, HCC1143, hPBMCs. The format is cell-based. How it is done:
The proliferation results are presented as IC50 in μM. First, the anti-proliferative effect of CDK9 inhibitors is much more pronounced on BrdNut mutated cell lines (=sensitive cell lines).
Cell lines were maintained in RPMI 1640 cell culture medium+glutamine (PAN Biotech GmbH, Aidenbach, Germany; order no. P04-22100; P04-05500) supplemented with 10% fetal calf serum “Gold” (PAA Laboratories GmbH, Pasching, Austria; order no. A15-151) and grown in a humidified atmosphere at 37° C., 5% CO2. As a first step, an optimal cell density for each cell line was determined to guarantee linearity. For viability assays with compounds, cells were then seeded at a density of 200 to 1000 per well in 25 μl in 384-well plates (Greiner Bio-One, Frickenhausen, Germany; order no. 781080). After overnight incubation at 37° C./5% CO2, 25 nl or 75 nl compounds were added to each sample well by using BIOMEK FX^P Laboratory Automation Workstation (Beckman Coulter, USA). Wells with cells and 0.1% or 0.3% DMSO in culture medium were used as positive controls, wells with cells and 10 μM staurosporine (Selleck Chemicals, Huston, USA) in culture medium were used as negative controls. […] Luminescence was measured by Envision Plate Reader (Perkin Elmer, USA). […]

The target of a further assay is T2, CDK9/CycT (Homo sapiens, UniProt P50750).
T2 construct: purchased ProQinase
T2 sequence (P50750 whole entry): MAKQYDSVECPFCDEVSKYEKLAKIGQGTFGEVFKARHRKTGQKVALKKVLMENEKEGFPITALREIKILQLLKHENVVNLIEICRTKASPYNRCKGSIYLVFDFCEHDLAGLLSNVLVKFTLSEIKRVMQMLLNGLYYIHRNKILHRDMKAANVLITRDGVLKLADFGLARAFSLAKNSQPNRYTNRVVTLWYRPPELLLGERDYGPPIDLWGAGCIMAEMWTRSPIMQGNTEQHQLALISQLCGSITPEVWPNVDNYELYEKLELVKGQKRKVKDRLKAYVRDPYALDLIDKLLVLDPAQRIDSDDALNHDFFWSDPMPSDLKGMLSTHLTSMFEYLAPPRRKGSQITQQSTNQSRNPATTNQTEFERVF
T2 sequence (O60563 whole entry partner): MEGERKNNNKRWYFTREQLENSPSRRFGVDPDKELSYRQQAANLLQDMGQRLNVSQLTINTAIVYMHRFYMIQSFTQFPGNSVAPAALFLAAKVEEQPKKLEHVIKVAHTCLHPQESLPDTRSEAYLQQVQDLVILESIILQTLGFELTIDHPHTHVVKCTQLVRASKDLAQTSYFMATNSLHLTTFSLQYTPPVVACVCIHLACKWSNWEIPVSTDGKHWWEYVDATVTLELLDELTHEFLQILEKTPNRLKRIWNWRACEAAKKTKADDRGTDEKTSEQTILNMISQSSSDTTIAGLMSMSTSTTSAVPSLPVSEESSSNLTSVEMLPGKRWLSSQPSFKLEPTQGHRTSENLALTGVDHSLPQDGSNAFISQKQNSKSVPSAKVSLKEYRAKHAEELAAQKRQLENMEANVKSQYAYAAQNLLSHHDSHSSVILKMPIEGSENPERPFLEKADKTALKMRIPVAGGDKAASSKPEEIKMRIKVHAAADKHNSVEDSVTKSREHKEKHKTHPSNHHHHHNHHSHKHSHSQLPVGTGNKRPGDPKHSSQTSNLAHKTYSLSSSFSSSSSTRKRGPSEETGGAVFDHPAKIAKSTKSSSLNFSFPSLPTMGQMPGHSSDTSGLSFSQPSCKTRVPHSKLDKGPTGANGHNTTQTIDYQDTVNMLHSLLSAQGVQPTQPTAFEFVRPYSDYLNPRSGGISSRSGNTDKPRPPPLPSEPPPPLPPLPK
Kind of assay: Radiometric protein kinase assay (33PanQinase Activity Assay), kinase selectivity. The format is biochemical. To be noted: 23 different kinases, 10 μM compound versus DMSO control; FIG. 3. On the procedure:
A radiometric protein kinase assay (33PanQinase® Activity Assay) was used for measuring the kinase activity of protein kinases employing exemplary CDK9 inhibitors to be used in the present invention (see FIG. 3). […] Activities of other kinases are not inhibited.
A similar experimental procedure is performed when the resulting activity within ^33PanQinase® assay is done. In advance buffers are prepared but in this case the pipetting sequence is first ATP solution diluted with assay buffer, DMSO or compound solution. The reaction (1 h at 30° C.) is started by addition of a substrate-kinase mix. During the incubation the kinase phosphorylates the substrate (different for each kinase). Due to the fact that the ATP solution contains ^33P-labelled ATP the substrate proteins are labeled with ^33P. The reaction is stopped by addition of excess H3PO4. If the reaction is performed in plates binding substrate proteins, said plates are washed to reduce unspecific signals (mainly not used ATP). […] Therefore, the incorporated radioactivity is detected by scintillation counting. Data is evaluated, processed and analyzed as described for the LANCE assays. […]
The reaction cocktails were incubated at 30° C. for 60 minutes. […] Incorporation of 33Pi (counting of “cpm”) was determined with a microplate scintillation counter (Microbeta, Wallac).

In a further assay the test system is HCC2429 cells. The assay can be described thus: Proliferation / cell viability assay (Cell Titer Glo) on HCC2429. It is filed as cell-based. To be noted: FIG. 1; for IC50: 72 h incubation, ATP content by CTG; for effect on proliferation of HCC2429 cells, in words: dose response experiments. On the procedure: Proliferation assays were performed as described below under materials and methods. […] (Cpd B1 and Ro-3306) were applied at concentrations between 30 and 0.0137 μM. After 72 h incubation with compounds ATP content/proliferation was determined employing CTG (Promega). Relative proliferation values (compared to vehicle control) were used to calculate IC50 values (Excel fit; algorithm #205). IC50s of the respective compound (Y-axis; logarithmic scale) on proliferation of various cell lines (X-axis) are depicted in black bars. White bars indicate that an IC50 could not be determined due to too low activity and therefore was higher than the highest applied concentration in the assays (30 μM). IC50s of compounds on CDK9 inhibitor sensitive cell line HCC2429 are presented in grey bars.
Cell lines were maintained in RPMI 1640 cell culture medium+glutamine (PAN Biotech GmbH, Aidenbach, Germany; order no. P04-22100; P04-05500) supplemented with 10% fetal calf serum “Gold” (PAA Laboratories GmbH, Pasching, Austria; order no. A15-151) and grown in a humidified atmosphere at 37° C., 5% CO2. As a first step, an optimal cell density for each cell line was determined to guarantee linearity. For viability assays with compounds, cells were then seeded at a density of 200 to 1000 per well in 25 μl in 384-well plates (Greiner Bio-One, Frickenhausen, Germany; order no. 781080). After overnight incubation at 37° C./5% CO2, 25 nl or 75 nl compounds were added to each sample well by using BIOMEK FX^P Laboratory Automation Workstation (Beckman Coulter, USA). Wells with cells and 0.1% or 0.3% DMSO in culture medium were used as positive controls, wells with cells and 10 μM staurosporine (Selleck Chemicals, Huston, USA) in culture medium were used as negative controls. Upon incubation with compounds for 72 h at 37° C./5% CO2 25 μl Cell Titer Glo reagent (Promega, Madison, USA, order no. G7573; 1:2 diluted with cell culture medium) was added to each well to determine cell viability. 384well-plates were placed for 2 min on an orbital microplate shaker and incubated for further 10 min at room temperature resulting in a stabilization of light signal. Luminescence was measured by Envision Plate Reader (Perkin Elmer, USA). IC50 values were calculated with the software Excel Fit (IDBS, Guildford, UK) from 3-fold dilution series comprising 8 concentrations in duplicates.

Structures are written as SMILES.

T1 sequence (P50750 whole entry): as the sequence (P50750 whole entry) above
T1 sequence (O60563 whole entry partner): as the sequence (O60563 whole entry partner) above

In the case of `COc1ccccc1-c1cc(Nc2cccc(CS(N)(=O)=O)c2)ncn1` [1073485-20-7P, 3-[[6-(2-methoxyphenyl)-4-pyrimidinyl]amino]-Benzenemethanesulfonamide], the “CDK9 inhibition potency, in words” value at CDK9/CyclinT1 is listed as “relatively weak”. In assay [1], the “proliferation inhibition in mutated, sensitive cell lines compared with wild type cell lines, in words” value was “much more potent in mutated, sensitive cell lines”.

The IC50 is the concentration needed to halve the response being measured. On to `COc1ccccc1-c1ncnc(Nc2cccc(CS(N)(=O)=O)c2)n1` [Cpd B1, 3-[(4-(2-Methoxyphenyl)-1,3,5-triazin-2-yl)amino]benzenemethanesulfonamide], for which, on CDK9/CycT, the “residual kinase activities / kinase selectivity, in words” value is recorded as “inhibits only CDK9 with high potency”. In addition, in the assay on HCC2429 cells (Homo sapiens, HCC2429), the IC50 amounted to 0.151 µM. Further, in the assay with HCC2429 cells, the “effect on proliferation of HCC2429 cells, in words” value is recorded as “potently affected proliferation”.

For `O=C1NC(=NCc2cccs2)S/C1=C\c1ccc2ncccc2c1` [Ro-3306], in the assay on HCC2429 cells, the IC50 was more than 10 µM and the “effect on proliferation of HCC2429 cells, in words” value is listed as “did not show comparable effects”.
